The source made the active and inactive calls.
Columns and labels:
[1] = tested on: BJ; test: cells; format: functional, cell-based; conditions: Homo sapiens
[2] = tested on: BJ; test: growth inhibition of engineered Ras-driven BJ cells – cell-based, alamar blue fluorescence, cherrypicked samples, dose response (AID 2631); format: functional; conditions: Homo sapiens;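 also: confirmatory dose-response assay in RAS-dependent BJ fibroblasts engineered with TERT, LT and ST, with cytotoxicity read by fluorescence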
[3] = tested on: BJ; test: BJ-TERT-LT-ST fibroblast viability loss – cell-based, RAS-independent, luminescence, dose response (AID 1935); format: functional; conditions: Homo sapiens;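 also: BJ fibroblasts immortalized with TERT plus LT and ST oncogenes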
[4] = tested on: INS1; test: INS-1E survival protection against cytokine death – cell-based, luminescence, retest, dose response (AID 449756); format: functional; conditions: Rattus norvegicus;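 also: cell death triggered by IL-1 beta plus TNF-alpha plus IFN-gamma mixture; protective hits raise ATP signal compared with cytokine alone wells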
[5] = luciferase reporter signal suppression in cells – H4 neuroglioma cells, luminescence, dose response (AID 1990); format: functional, cell-based
[6] = HEK-293T cell viability reduction – luminescence, B-cell screen hits, cytotoxicity control for BCR NF-kB inhibitor project, dose response (AID 489021); format: functional, cell-based;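 also: HEK-293T cells carrying an NF-kB luciferase reporter; cells exposed to compound for about 14 hours before viability readout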
[7] = Luminescence Cell-Based Dose Response HTS to Identify Inhibitors of 5'UTR Stem-Loop Driven Prion Protein mRNA Translation in H4 Neuroglioblastoma Cells. [Related pubchem assays: 1827 (Project Summary), 1813 (Primary HTS)]; format: functional
[8] = Luminescence-based dose response cell-based high throughput screening assay for cytotoxic compounds using the IEC-6 intestinal epithelial cell line. [Related pubchem assays: 1858 (Summary AID.), 1825 (Counterscreen.), 1907 (Confirmation screen.)]; format: functional
[9] = alpha-synuclein stem-loop luciferase translation blockers – H4 neuroglioma cells, luminescence, confirmation (AID 1988); format: functional, cell-based
[10] = DRD fibroblast viability loss – cell-based, non-viral oncogenic, luminescence, dose response (AID 1934); format: functional; conditions: Homo sapiens
[11] = tested on: BJ; test: BJ-TERT fibroblast viability loss – cell-based, RAS-independent, luminescence, dose response (AID 1933); format: functional; conditions: Homo sapiens
[12] = molecular target: T1, NADPH oxidase 1 (Homo sapiens, UniProt Q9Y5S8); test: Luminescence-based cell-based dose response assay to identify inhibitors of NADPH oxidase 1 (NOX1).; format: functional
T1 sequence (Q9Y5S8 whole entry): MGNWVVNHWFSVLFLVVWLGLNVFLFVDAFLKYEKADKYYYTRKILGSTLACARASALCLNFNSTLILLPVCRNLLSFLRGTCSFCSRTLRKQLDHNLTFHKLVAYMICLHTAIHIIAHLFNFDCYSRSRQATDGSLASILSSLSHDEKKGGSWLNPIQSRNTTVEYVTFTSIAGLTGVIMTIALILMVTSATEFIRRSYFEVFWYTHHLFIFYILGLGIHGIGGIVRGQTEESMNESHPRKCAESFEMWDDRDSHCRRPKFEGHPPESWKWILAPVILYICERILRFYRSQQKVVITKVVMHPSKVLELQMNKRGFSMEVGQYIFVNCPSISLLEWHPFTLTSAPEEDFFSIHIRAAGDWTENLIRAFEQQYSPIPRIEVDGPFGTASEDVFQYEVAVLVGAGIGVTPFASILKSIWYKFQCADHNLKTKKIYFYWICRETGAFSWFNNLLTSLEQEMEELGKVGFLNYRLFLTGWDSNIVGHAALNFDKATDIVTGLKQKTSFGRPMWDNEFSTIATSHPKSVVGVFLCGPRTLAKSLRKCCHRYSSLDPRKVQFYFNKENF

[13] = molecular target: T2, Bcl-2-related protein A1 (Mus musculus, UniProt Q07440); test: Bfl-1 binding inhibitors, SAR follow-up, biochemical, fluorescence polarization (AID 1070)
T2 sequence (Q07440 whole entry): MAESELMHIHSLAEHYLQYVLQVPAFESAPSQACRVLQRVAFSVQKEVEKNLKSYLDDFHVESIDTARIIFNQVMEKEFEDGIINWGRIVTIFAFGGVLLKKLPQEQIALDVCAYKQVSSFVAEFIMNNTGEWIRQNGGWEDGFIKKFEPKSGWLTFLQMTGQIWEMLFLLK

[14] = molecular target: Glyceraldehyde-3-phosphate dehydrogenase (Homo sapiens, UniProt P04406)
[15] = molecular target: T2, Bcl-2-related protein A1; test: small-molecule antagonists of Bfl-1/BH3 interaction – biochemical, TR-FRET, mouse Bfl-1, confirmation (AID 621);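 also: TR-FRET binding of GST-Bfl-1 to FITC-labelled Bid peptide via terbium antibody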
[16] = A Cell Based Secondary Assay To Explore Cytotoxicity of Compounds that Sensitize Mycobacterium Tuberculosis to Beta-Lactam Antibiotics.; format: functional
[17] = HEK-293T viability loss after treatment – luminescence, T-cell screen hits, cytotoxicity control for TCR NF-kB inhibitor project, dose response (AID 489026); format: functional, cell-based;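 also: cells exposed to compound about 14 hours before the viability readout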
[18] = molecular target: Peroxisome proliferator-activated receptor gamma/Nuclear receptor coactivator 3 (Homo sapiens, UniProt P37231); format: functional;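 also: agonist potency for raising coactivator recruitment to the receptor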
[19] = molecular target: Peroxisome proliferator-activated receptor gamma/Nuclear receptor coactivator 1 (Homo sapiens, UniProt P37231); format: functional;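 also: agonist potency as compounds enhance coactivator SRC-1 recruitment to PPARgamma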
[20] = molecular target: Peroxisome proliferator-activated receptor gamma/Nuclear receptor coactivator 2 (Homo sapiens, UniProt P37231); format: functional;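 also: agonist potency for raising coactivator recruitment to the receptor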
[21] = blockade of melanocortin 4 receptor signaling – cell-based, plate reader, cherry pick, counter-screen for LGR2 antagonist project, dose response (AID 743444); format: functional;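 also: transfected HEK 293 cells stimulated with alpha-MSH peptide; potency of inhibitors of the alpha-MSH evoked signal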
[22] = blockers of bursicon-stimulated LGR2 cAMP reporter – cell-based, HEK293, CRE-luciferase reporter, cherry pick, set 2, dose response (AID 743343); format: functional;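 also: transfected cells were stimulated with diluted bursicon conditioned medium after compound addition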
[23] = cells; format: functional, cell-based
[24] = tested on: HT-1080; test: HT1080 cell viability loss – fluorescence readout (AID 620); format: functional, cell-based; conditions: Homo sapiens
[25] = molecular target: T3, Nuclear receptor subfamily 0 group B member 1 (Homo sapiens, UniProt P51843); format: functional, cell-based;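 also: HEK293T cells transfected with SF-1 and DAX-1 plus StAR promoter luciferase reporter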
T3 sequence (P51843 whole entry): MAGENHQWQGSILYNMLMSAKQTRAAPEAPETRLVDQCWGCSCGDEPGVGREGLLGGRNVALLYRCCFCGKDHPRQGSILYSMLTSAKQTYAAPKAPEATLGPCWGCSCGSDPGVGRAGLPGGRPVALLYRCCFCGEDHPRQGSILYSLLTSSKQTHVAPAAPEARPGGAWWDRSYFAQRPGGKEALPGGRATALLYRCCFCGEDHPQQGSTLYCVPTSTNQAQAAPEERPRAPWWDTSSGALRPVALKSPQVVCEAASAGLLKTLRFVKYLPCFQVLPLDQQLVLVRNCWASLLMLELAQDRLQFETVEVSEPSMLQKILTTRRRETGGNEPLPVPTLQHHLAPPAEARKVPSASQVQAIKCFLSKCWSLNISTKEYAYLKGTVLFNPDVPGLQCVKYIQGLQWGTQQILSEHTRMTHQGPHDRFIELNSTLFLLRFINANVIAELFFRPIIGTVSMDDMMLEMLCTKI

[26] = molecular target: Luciferin 4-monooxygenase (Photinus pyralis, UniProt P08659); test: Counter Screen for Luciferase-based Assay Positives. [Related pubchem assays: 620, 618, 411 ]
[27] = tested on: Vero; test: cells; format: functional; conditions: Chlorocebus sabaeus
[28] = tested on: Vero; test: cells; format: functional, cell-based; conditions: Chlorocebus sabaeus
[29] = antiviral protection against BTV-induced cell death – arbovirus, BSR cells, confirmation (AID 1250); format: functional;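 also: protection from viral cytopathic effect measured as cell viability by ATP luminescence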
[30] = tested on: Streptococcus; test: GAS UMAA2166 growth inhibition – luminescence, BacTiterGlo, counter-screen for streptokinase expression inhibitor project, dose response (AID 1915); format: functional, organism-based;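 also: potency for reduction of bacterial viability or growth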
[31] = NIH3T3 cell viability loss – ATP luminescence, mouse fibroblasts, counter-screen, dose response (AID 2010); format: functional, cell-based;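 also: cells exposed to compound for about 90 hours before reading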
[32] = tested on: Streptococcus sp. 'group A'; test: Streptococcus pyogenes SK(-)GAS viability under kanamycin – luminescence, BacTiterGlo, confirmation, counter-screen for streptokinase expression inhibitor project, dose response (AID 1900); format: functional, organism-based
[33] = cells; format: functional, cell-based; remark: listed apart in the source
[34] = tested on: Vero; test: mammalian cell viability reduction – secondary assay, cytotoxicity control for West Nile virus antiviral project, dose response (AID 1650); format: functional; conditions: Chlorocebus sabaeus
[35] = Trypanosoma cruzi growth suppression in host cells – NIH3T3 host cells, beta-gal luminescence, confirmation (AID 2044); format: functional, cell-based;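 also: intracellular parasites grown in NIH/3T3 mouse fibroblasts as host cells; luminescent beta-galactosidase reporter signal from transgenic T. cruzi replicating inside host cells; inhibitors lower the luminescence signal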
[36] = cells; format: functional, cell-based; remark: listed apart in the source
[37] = molecular target: Cytochrome P450 2C19 (Homo sapiens, UniProt P33261); test: Cytochrome panel assay with activity outcomes. Panel member name: p450-cyp2c19 Compounds with AC50 equal or less than 10 uM are considered active; format: functional; conditions: read-out: AC50
[38] = molecular target: T4, Mannose-6-phosphate isomerase (Homo sapiens, UniProt P34949); test: MPI inhibition at elevated mannose 6-phosphate – biochemical, fluorescence intensity, high mannose 6-phosphate, primary screen (AID 1220)
T4 sequence (P34949 whole entry): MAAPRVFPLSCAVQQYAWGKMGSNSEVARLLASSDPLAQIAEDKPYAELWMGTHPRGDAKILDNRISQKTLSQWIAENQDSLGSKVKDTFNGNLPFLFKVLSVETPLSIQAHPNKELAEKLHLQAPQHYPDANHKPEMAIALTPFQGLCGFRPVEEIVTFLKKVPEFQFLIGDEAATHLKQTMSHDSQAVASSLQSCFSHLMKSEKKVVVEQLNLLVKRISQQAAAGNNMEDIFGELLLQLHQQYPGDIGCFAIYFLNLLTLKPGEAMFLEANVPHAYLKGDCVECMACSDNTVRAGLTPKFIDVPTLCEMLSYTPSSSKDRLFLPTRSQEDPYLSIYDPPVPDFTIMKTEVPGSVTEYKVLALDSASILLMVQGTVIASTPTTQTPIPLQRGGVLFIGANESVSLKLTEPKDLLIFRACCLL

[39] = viability of HCT116 lacking mutant beta-catenin – cell-based, human colon tumor, dose response (AID 1045); format: functional;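 also: HCT116 colon tumor cells with beta catenin knocked out; cells exposed to compound for 60 hours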
[40] = viability of PTEN-deleted HCT116 cells – cell-based, HCT116 PTEN knockout, dose response (AID 1047); format: functional;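 also: HCT116 colon tumor cells with PTEN knocked out; cells exposed to compound for 60 hours before readout; potency for loss of cell viability measured by luminescence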
[41] = molecular target: T4, Mannose-6-phosphate isomerase; test: MPI enzyme activity inhibition – biochemical, fluorescence intensity, coupled assay, primary screen (AID 1209)

Sequence of Luciferin 4-monooxygenase (P08659 whole entry): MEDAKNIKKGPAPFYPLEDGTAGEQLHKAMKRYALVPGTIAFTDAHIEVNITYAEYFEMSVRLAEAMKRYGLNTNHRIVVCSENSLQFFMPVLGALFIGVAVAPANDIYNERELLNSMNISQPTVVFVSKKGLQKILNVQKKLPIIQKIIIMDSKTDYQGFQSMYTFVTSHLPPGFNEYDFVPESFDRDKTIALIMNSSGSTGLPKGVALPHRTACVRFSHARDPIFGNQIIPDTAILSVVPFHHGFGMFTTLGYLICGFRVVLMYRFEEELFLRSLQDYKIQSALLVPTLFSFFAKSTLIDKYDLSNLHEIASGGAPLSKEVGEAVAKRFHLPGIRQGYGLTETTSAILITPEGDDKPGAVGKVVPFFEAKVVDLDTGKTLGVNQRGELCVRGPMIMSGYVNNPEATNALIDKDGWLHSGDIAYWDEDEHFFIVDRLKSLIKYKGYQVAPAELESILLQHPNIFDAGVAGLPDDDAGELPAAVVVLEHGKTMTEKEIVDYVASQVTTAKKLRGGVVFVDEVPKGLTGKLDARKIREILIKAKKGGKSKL
Sequence of Glyceraldehyde-3-phosphate dehydrogenase (P04406 whole entry): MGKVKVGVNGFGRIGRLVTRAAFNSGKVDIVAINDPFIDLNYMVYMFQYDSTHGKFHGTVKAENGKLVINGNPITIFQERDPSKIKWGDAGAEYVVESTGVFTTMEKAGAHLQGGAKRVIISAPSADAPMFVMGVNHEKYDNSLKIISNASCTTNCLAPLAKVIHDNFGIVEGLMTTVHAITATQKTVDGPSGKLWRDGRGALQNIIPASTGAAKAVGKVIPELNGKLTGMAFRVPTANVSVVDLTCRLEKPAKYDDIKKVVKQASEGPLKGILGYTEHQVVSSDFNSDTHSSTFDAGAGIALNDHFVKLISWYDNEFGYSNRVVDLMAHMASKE
Sequence of Peroxisome proliferator-activated receptor gamma/Nuclear receptor coactivator 1 (P37231 whole entry): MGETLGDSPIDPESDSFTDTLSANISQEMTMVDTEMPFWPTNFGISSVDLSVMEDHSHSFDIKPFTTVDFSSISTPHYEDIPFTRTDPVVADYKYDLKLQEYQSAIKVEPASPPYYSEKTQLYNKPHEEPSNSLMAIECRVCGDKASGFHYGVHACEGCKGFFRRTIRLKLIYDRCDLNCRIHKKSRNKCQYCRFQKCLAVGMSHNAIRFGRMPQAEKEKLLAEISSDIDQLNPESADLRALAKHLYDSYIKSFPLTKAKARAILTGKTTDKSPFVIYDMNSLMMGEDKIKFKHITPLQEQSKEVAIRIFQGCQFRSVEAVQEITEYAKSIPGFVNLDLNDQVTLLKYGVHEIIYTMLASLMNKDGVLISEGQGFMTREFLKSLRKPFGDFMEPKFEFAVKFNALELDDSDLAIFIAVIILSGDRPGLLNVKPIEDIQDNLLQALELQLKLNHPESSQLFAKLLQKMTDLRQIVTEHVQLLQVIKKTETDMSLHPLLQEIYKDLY
Sequence of Peroxisome proliferator-activated receptor gamma/Nuclear receptor coactivator 1 (Q15788 whole entry, further chain): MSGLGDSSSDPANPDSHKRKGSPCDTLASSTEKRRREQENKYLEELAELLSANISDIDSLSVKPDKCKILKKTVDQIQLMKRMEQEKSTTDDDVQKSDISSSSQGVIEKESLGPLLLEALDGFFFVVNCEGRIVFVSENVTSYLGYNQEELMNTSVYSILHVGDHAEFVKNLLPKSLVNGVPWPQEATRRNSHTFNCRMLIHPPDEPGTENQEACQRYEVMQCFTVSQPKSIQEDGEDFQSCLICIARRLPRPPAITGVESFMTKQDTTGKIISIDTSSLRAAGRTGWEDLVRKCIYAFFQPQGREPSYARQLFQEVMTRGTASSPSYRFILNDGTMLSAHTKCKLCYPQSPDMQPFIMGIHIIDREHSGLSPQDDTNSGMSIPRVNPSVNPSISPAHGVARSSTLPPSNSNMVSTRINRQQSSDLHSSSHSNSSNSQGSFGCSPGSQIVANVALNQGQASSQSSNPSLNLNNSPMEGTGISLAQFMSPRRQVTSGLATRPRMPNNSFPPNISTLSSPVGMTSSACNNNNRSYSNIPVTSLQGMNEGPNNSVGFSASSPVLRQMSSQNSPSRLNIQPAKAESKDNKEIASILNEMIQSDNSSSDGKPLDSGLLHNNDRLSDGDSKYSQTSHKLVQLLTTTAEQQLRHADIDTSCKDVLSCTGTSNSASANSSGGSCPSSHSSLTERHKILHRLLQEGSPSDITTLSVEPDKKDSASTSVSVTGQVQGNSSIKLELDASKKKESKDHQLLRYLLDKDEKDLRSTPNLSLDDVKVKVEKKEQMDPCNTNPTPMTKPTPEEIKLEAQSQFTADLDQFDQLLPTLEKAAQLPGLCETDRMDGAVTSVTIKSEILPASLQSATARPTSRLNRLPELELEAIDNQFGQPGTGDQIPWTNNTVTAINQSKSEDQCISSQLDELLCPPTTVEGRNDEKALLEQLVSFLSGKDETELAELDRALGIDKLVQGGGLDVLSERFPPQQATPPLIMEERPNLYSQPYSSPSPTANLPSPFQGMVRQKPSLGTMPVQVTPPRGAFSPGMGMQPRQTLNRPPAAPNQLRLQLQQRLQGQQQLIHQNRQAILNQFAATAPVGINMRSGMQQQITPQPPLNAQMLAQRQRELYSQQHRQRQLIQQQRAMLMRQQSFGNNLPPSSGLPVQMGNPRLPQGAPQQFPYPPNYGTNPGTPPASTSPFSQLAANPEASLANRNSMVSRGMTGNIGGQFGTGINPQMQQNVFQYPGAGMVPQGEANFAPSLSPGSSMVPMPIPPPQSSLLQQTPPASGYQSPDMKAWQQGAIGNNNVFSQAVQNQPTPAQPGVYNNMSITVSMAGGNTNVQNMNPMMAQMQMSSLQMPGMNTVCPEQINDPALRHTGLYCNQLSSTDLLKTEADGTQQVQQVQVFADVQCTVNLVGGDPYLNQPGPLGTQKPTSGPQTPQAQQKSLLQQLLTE
Sequence of Peroxisome proliferator-activated receptor gamma/Nuclear receptor coactivator 2 (P37231 whole entry): as the sequence (P37231 whole entry) above
Sequence of Peroxisome proliferator-activated receptor gamma/Nuclear receptor coactivator 2 (Q15596 whole entry, further chain): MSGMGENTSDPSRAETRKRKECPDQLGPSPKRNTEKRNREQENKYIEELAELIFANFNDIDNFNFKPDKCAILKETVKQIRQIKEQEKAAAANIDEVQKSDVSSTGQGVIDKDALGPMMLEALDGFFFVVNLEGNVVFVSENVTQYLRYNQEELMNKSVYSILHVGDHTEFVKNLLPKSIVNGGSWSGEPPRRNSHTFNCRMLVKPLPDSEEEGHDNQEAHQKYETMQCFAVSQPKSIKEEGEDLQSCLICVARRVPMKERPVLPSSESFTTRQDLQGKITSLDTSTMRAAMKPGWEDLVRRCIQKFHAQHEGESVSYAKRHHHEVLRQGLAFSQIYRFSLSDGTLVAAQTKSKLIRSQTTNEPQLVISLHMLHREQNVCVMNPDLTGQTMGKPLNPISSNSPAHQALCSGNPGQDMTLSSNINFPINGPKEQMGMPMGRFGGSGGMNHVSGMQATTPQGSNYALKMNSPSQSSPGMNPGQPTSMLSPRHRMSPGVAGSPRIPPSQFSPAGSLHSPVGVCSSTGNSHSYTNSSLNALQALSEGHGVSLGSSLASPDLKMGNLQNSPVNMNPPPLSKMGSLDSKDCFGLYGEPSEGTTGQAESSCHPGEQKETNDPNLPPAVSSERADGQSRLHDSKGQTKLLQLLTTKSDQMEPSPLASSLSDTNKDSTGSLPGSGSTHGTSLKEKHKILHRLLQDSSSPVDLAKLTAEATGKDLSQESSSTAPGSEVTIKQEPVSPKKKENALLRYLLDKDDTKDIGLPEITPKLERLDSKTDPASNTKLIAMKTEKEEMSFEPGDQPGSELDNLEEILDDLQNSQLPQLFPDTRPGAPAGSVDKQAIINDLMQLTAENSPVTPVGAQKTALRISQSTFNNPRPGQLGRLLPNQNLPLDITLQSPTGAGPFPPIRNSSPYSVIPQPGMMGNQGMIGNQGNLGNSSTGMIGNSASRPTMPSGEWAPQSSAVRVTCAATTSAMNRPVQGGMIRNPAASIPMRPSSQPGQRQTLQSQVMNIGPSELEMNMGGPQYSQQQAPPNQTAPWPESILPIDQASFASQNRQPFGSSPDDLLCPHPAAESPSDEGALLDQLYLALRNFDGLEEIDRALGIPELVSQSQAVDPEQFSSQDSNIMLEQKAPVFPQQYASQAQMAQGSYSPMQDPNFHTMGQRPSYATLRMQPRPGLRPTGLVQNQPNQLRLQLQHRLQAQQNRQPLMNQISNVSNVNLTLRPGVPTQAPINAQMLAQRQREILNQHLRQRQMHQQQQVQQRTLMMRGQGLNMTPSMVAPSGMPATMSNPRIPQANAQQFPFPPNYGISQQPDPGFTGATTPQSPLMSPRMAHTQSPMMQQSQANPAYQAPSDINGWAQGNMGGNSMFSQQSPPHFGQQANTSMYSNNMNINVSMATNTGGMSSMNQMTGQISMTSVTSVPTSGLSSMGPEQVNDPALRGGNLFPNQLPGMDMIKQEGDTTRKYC

For COc1ccc(Cc2nc(-c3ccc(NC(=O)c4cccnc4)cc3)no2)cc1, the EC50 [1] was 2.38 µM (active), the EC50 [2] was 58.4 µM (active) and the EC50 [3] was > 150 µM (not active). The AC50 [4] was < 0.195 µM (active), the EC50 [5] was 11.2 µM (active) and the IC50 [6] was > 80 µM (inactive). The EC50 [7] was 8.73 µM (active), the IC50 [8] was 0.649 µM (active) and the EC50 [9] was 5.99 µM (active). The EC50 [10] was > 150 µM (not active) and the EC50 [11] was > 150 µM (inconclusive).

With [O-][S+]1c2ccccc2Nc2ccccc21 the IC50 [12] was > 20 µM (not active).

For CN1CCN(C2=C(Cl)C(=O)N(c3ccc(Cl)cc3Cl)C2=O)CC1, the IC50 [13] was 2.62 µM (active), the IC50 [14] was > 100 µM (not active) and the IC50 [15] was 1.36 µM (active).

With CS(=O)(=O)N(Cc1ccccc1)c1ccc(C(=O)N2CCN(c3cccc(Cl)c3)CC2)cc1 the CC50 [16] was > 40 µM (active).

In the case of CCOCCOC(=O)c1[nH]c2c(c1C)C(=O)CC(c1ccccc1)C2 (centres undefined), the EC50 [1] is reported as 12.6 µM (active), the EC50 [2] is reported as < 0.104 µM (inconclusive) and the EC50 [3] is reported as 0.756 µM (active). For the same molecule, the IC50 [8] was 0.521 µM (active), the EC50 [10] was 1.29 µM (active) and the IC50 [17] was > 80 µM (inactive). The EC50 [11] was 0.851 µM (inconclusive).

For O=C(C1=C[C@@H](c2ccc(Br)cc2)C[C@@H](OCCCCO)O1)N1CCN(Cc2ccc3c(c2)OCO3)CC1, the EC50 [18] was > 79.4 µM (not active), the EC50 [19] was > 79.4 µM (not active) and the EC50 [5] was 16.3 µM (active). For the same molecule, the EC50 [20] was > 79.4 µM (not active) and the EC50 [9] was 20.5 µM (active).

For CC(C)Nc1ncnc2c1cnn2-c1ccc(Cl)cc1, the AC50 [21] was 13.3 µM (active), the AC50 [22] was 11.9 µM (active) and the IC50 [23] was > 67.5 µM (inactive). For the same molecule, the EC50 [24] was > 50 µM (not active), the IC50 [25] was > 67.5 µM (inactive) and the EC50 [26] was 15.3 µM (active).

In the case of CCc1ccc(CC2S/C(=C(\C#N)C(C)=O)NC2=O)cc1 (centres undefined), the CC50 [27] is reported as > 25 µM (active), the IC50 [28] is reported as 13.2 µM (active) and the IC50 [29] is reported as 27.9 µM (active).

In the case of Cc1ccccc1NC(=O)c1cnc2ccccn2c1=O, the EC50 [24] is reported as > 50 µM (not active) and the EC50 [26] is reported as 46.4 µM (active).

For Oc1nc(-c2ccccn2)nc2sc(-c3ccccc3)cc12, the EC50 [1] was 16.2 µM (active), the EC50 [30] was 13.2 µM (active) and the EC50 [3] was 15.6 µM (inconclusive). The IC50 [28] was 7 µM (active), the EC50 [31] was 1.27 µM (active) and the EC50 [32] was 0.571 µM (active). The EC50 [33] was 16.6 µM (active), the CC50 [34] was 2.08 µM (active) and the EC50 [35] was 0.216 µM (active). The EC50 [36] was 4.87 µM (active), the EC50 [10] was 121 µM (inconclusive) and the EC50 [11] was 17.6 µM (active).

With CC(=O)N1c2ccccc2S(=O)(=O)c2ccccc21 the IC50 [12] was > 20 µM (not active).

For O=c1oc(-c2cccs2)nc2ccc(Br)cc12, the AC50 [37] was 22.4 µM (inconclusive) and the IC50 [29] was 28.9 µM (active).

In the case of CC1CCc2c(sc3nc(SCC(=O)NCc4ccco4)nc(N)c23)C1 (centres undefined), the EC50 [18] is reported as > 79.4 µM (not active), the EC50 [19] is reported as > 79.4 µM (not active) and the EC50 [20] is reported as > 79.4 µM (not active).

With O=C1C(Cl)=C(Cl)C(=O)N1c1ccc(Cl)c(Cl)c1 the IC50 [13] was 1.15 µM (active), the IC50 [14] was > 100 µM (not active) and the IC50 [15] was 0.77 µM (active).

With O=C(NCc1ccco1)c1cccn2c(=O)c3cc4ccccc4cc3nc12 the IC50 [38] was > 50 µM (not active), the EC50 [39] was 10.7 µM (active) and the EC50 [40] was 12.4 µM (active). For the same molecule, the IC50 [41] was > 50 µM (not active).

Source: ChEMBL document CHEMBL1201862, “PubChem BioAssay data set” (2004)
